Results as given in paper PMC5342726, “Identification of small molecule inhibitors of ERCC1-XPF that inhibit DNA repair and potentiate cisplatin efficacy in cancer cells” (Oncotarget, 2016).
Values belong to the compound of their own block, whether it stands above or below them.

Legend:
[1] = tested on: H460 xenografts; settings: 16168 20 mg/kg i.p. daily or cisplatin 3 mg/kg i.p. twice a week, 10 days
[2] = tested on: H460 cells; assay: Cisplatin interstrand crosslink repair by comet assay; assay type: cell-based; settings: 72 hours, cisplatin at IC90 alone
Protocol: (B) After treatment, comet assay was performed as described at different time intervals (0, 24, 48 and 72 h). The percentage of interstrand crosslinks remaining was calculated using olive tail moment. Results are represented as mean ± SEM of three independent experiments.
The data is expressed as the percentage of crosslinks remaining at the time points assessed.
Cells were treated with compound (Hit control (9:1 DMSO-glycerol). After incubation at 37°C 1 or Hit 2) and cisplatin or just cisplatin alone in serum for 30 minutes, 2 μL of the pre-incubate was diluted into a free media. […] Cells were further treated with 100 μM
Cells were then trypsinized, pelleted and resuspended in 1% low melting point agarose.

[3] = tested on: H460 cells; assay: Cisplatin intrastrand adduct repair by ELISA; assay type: cell-based; settings: 72 hours (last time point), compound 15 μM 2 h then cisplatin at IC90 2 h; relative to 0 hour
[4] = biological target: T1, ERCC1-XPF (Homo sapiens, UniProt P07992+Q92889); assay: HTS fluorescence assay of ERCC1-XPF endonuclease activity; assay type: biochemical; settings: IC50s calculated by CompuSyn, SD from 3 plots, read-out: ERCC1-XPF IC50
T1 construct: made in house; host or cells: Sf9 insect cells, baculovirus (obtained from Aziz Sancar)
T1 sequence (Q92889 1-916): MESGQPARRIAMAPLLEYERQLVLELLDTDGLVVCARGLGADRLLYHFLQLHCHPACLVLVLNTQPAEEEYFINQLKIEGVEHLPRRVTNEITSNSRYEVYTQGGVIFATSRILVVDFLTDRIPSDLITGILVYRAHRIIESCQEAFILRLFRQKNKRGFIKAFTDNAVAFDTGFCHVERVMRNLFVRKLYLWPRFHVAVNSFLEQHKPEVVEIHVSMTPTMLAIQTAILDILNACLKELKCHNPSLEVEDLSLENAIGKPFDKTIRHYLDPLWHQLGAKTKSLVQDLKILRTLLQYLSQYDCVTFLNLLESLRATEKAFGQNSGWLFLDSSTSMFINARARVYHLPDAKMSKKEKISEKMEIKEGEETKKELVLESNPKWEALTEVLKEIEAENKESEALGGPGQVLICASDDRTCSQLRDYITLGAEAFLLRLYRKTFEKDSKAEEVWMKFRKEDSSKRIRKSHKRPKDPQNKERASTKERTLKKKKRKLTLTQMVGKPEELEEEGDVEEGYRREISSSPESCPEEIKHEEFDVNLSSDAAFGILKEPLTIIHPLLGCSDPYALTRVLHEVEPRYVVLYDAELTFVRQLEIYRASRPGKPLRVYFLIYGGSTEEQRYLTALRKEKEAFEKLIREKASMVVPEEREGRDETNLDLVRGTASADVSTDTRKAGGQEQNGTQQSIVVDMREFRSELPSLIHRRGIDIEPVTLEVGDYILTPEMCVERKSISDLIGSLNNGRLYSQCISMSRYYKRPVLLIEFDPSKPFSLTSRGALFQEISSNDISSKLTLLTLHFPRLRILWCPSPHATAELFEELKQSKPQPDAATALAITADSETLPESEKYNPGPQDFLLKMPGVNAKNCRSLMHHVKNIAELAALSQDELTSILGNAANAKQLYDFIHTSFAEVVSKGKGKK
T1 sequence (P07992 1-297): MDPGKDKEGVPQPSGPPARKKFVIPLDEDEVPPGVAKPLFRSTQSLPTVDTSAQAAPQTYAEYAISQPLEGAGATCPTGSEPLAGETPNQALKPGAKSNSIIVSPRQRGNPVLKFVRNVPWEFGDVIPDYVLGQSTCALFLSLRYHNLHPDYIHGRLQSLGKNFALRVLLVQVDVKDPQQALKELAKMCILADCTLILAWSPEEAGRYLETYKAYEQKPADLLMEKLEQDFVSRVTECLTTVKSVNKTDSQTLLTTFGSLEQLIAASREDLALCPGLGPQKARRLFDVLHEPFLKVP
Text: To screen for ERCC1-XPF inhibition, an existing in vitro assay was optimized to a 96-well plate format to allow for screening of compound libraries (NCI-DTP diversity set). These compounds and subsequent vialed compounds were from the Drug Synthesis and Chemistry Branch, Developmental Therapeutics Program, Division of Cancer Treatment and Diagnosis at the National Cancer Institute. We used purified ERCC1-XPF (Supplementary Figure S1) and describe the purification procedure in Supplementary Information. The initial cuvette-based assay was optimized for DNA, MgCl2 concentrations as well as the incubation time to be used in the fluorescence assay in a 96 well plate format (Supplementary Figure S2). The assay consists of a 10 nM DNA (Q+Fl substrate annealed, described below) and 7.5 nM ERCC1-XPF protein in buffer containing 50 mM Tris-HCl pH8.0, 2 mM MgCl2, 0.1 mM BSA, and 0.5 mM β-mercaptoethanol. For preliminary screening, 150 μL of DNA was added to each well and the fluorescence signal was measured at 525 nm following excitation at 485 nm. Compounds or controls were then added to individual wells for a total of 80 compounds on each plate and the fluorescent signal was re-measured. We initially ran the screen using 50 μM compound and then repeated using 10 μM compound. 16 controls were used per plate, which consisted of buffer alone, DNA alone, ERCC1-XPF alone, 10 nM fluorescein ssDNA (positive signal), and 10 nM Q-Fl DNA with 7.5 nM ERCC1-XPF (positive signal). 7.5 nM ERCC1-XPF was added to each well containing the compounds and DNA and incubated for 30 minutes at 37°C after which the fluorescent signal was measured again.
The synthetic DNA substrate mimics a native forked ssDNA-dsDNA substrate of ERCC1-XPF (Figure 1A). This forked DNA substrate has a dsDNA region (14 bases) and a region containing two ssDNA flaps (12 bases each). One 26-mer DNA oligonucleotide contains a site-specific fluorescein modification at the indicated position (Fl Oligo: 5' - GCCAGCGCTCGGAT(AminoC6dT)(FLSN) TTTTTTTTTTT). The semi-complementary strand was synthesized containing a DABCYL quencher (Q) molecule at the depicted position (Q Oligo: 5' - TTTTTTTTTTT (AminoC6dT)(Dabcyl) ATCCGAGCGCTGGC; Figure 1A). The fluorescein (*) molecule has an excitation peak centered at 485 nm and an emission peak centered at 525 nm. The quencher (Q) molecule is able to quench the fluorescence signal of the fluorescein when it is in close proximity. The design of the semi-duplex DNA substrate is such that the fluorescein and DABCYL quencher are directly opposite one another at the double-stranded and single-stranded DNA junction (Figure 1A). […] Upon cleavage by ERCC1-XPF, (~4-5 bases from the dsDNA-ssDNA) the fluorescein label on the cleaved DNA is released into solution and results in a significant increase in fluorescence as the quencher is no longer in close proximity. The DNA substrate is also incorporated with a restriction enzyme site (HhaI) within the duplex DNA that results in a cleavage pattern similar to ERCC1-XPF. This serves as a positive control and allows assessment of ERCC1-XPF cleavage product. This DNA substrate is used in the solution based fluorescence screening assay to screen for inhibitors of ERCC1-XPF endonuclease activity. In the 96 well platform, the Z factor was calculated to be ~0.87 indicating a highly robust assay and highly suitable for a HTS. A Molecular Devices Spectramax M5 plate reader was used for fluorescence detection. The DNA substrate was the same for gel-based assays besides the fluorescent/quencher modifications and 5'-labeling using γ-ATP^32. For the secondary screen, the reaction was setup in a tube with 10 nM DNA, 7.5 nM XPF-ERCC1, 20 U/ml of HhaI, or 7.5 nM XPG (Supplementary Figure S3A) in nuclease reaction buffer with compound titration and incubated at 37°C for 30 minutes. The reaction was stopped by chelating the metal in the buffer and read in the Spectramax M5 plate reader.

[5] = tested on: H460 cells; assay: Colony survival assay in H460 cells; assay type: cell-based; settings: SAR, Supplementary Figure S6; cell line not stated
Protocol: We used H460, NSCLC cells, to first assess the impact on colony survival by knocking down ERCC1-XPF in these cells. […] Next, to assess if colony survival is affected we titrated cisplatin in these cells using a fixed concentration of Hit 1(50 μM) or Hit 2 (25 and 50 μM). […] Next, we assessed cisplatin potentiation by treating cells at a fixed cisplatin concentration (cisplatin IC50 in H460 cells) with Hit 1 or 2 titration (Figure 4C, filled symbols). H460 cells were treated with compound for a total of 4 hours while cisplatin was added to the media after 2 hours of compound pre-treatment. […] We also titrated Hit 1 or Hit 2 alone in these cells and treated for 4 h. […] We also assessed the effects of Hit 2 in another NSCLC cell line (H1299), which was either ERCC1 wildtype (WT) or knockout (KO) (Figure 4E).
Colony survival assay in a total reaction volume of 2.4 mL in a six-well plate Cells were split and seeded at a density of 300-400 format. Cells were transfected for 48 hours after which cells in a 60 mm plate and incubated overnight. The next complete media was added for 24 hours. Cells were day, the cells were treated with a fixed concentration of the seeded for clones and clones were selected using standard compound (Hit 1 or Hit 2) with cisplatin titration. After methods. ERCC1 KO clones were tested for ERCC1 treatment, fresh complete medium with antibiotics was and XPF expression by Western Blot using the ERCC1 added and the cells were then allowed to form colonies. In antibodies, 8F1, FL-297, and D-10 and the XPF antibody another method, the cells were seeded onto 60mm plates 3F2/3 (Santa Cruz).
Validation of genome editing was performed alone or titrated with a fixed concentration of cisplatin by PCR amplification with Taq polymerase (NEB) of (IC50 for the cell line used). Post treatment, the cells were exon 2 within the genomic DNA using the forward allowed to form colonies. Colonies were fixed with 95% primer: 5’ […]
methanol and stained with 0.2 % crystal violet. Colonies 3’ and the reverse primer: 5’ […]
with ≥50 cells were counted using a light microscope. Cell […] 3’. PCR product was cloned […]
survival was expressed as the ratio of average number of into a linearized pCR4-TOPO vector and transformed colonies in drug treated cells versus control cells x 100. into OneShot TOP10 E. coli using the TOPO-TA Cloning The experiment was done in triplicate for each drug Kit for Sequencing (Thermofisher). Bacterial colonies concentration. We have previously published the methods were selected with ampicillin and plasmid was extracted for ERCC1 and XPF knockdowns, which were used as using standard procedures. Plasmid was sequenced by controls. Briefly, cells were seeded onto six-well plates GeneWiz using an M13R primer. Potential sites of off-target editing in coding sequences were identified during
(density 2.5 × 10^5 cells /well) in antibiotic free media. guide RNA design with the Optimized CRISPR Design Two transfections were done at 24 h interval in each cell Tool. Primers were designed to amplify the exons line to knockdown ERCC1-XPF together according to containing the potential off-target sites and PCR product the manufacturer ’s (Dharmacon’s smartpools) protocol. was sequenced by GeneWiz. A list of specific off-target Addition of lipid reagent (Dharmafect 2, Dharmacon) sites and primers used to assess these off-target effects are […]

Structure (SMILES): N.N.[Cl][Pt][Cl] [Cisplatin, cis-diammine-dichloroplatinum (II)]
tumor growth, single agent [1]: initial tumor response that delayed tumor growth | ICLs remaining [2]: 1-5% | intrastrand adducts remaining [3]: ~ 15%

Structure (SMILES): O=S(=O)(NCCO)c1cc[c]([Sb](=[O])([OH])[OH])cc1 [NSC13776]
IC50 [4]: 1150 ± 960 nM

IC50 [4]: 790 ± 350 nM
Structure (SMILES): NC(=O)C[S+]([O-])CC(N)C(=O)O (stereo not shown) [NSC14161]

IC50 [4]: 530 ± 128 nM
Structure (SMILES): C[C@@H](O)CN(CCN(C[C@@H](C)O)C[C@@H](C)O)C[C@@H](C)O.O=[N+]([O-])O.[Cu] [NSC103019]

Structure (SMILES): Oc1cc(O)c2c(c1)O[C@H](c1ccc(O)c(O)c1)[C@@H](O)[C@@H]2c1c(O)cc(O)c2c1O[C@H](c1ccc(O)c(O)c1)[C@@H](O)C2 [Procyanidin B3]
potentiation of cisplatin by structural analogues in cell culture / colony survival [5]: activity for only one of the structural analogues
